According to PubChem BioAssay AID1626 (SRMLSC, 2009):

System: M. tuberculosis H37Rv growth inhibition
Experiment: M. tuberculosis H37Rv growth inhibitors, H37Rv strain (AID 1626)
Conditions: for IC90: measured here: IC90 against H37Rv; for CC50: measured here: Vero cell cytotoxicity

| SMILES | IC50 [µM] | IC90 [µM] | CC50 [µM] |
| --- | --- | --- | --- |
| Cc1ccc(-n2cc(CN3CCC(CO)(Cc4cccc(C(F)(F)F)c4)CC3)cn2)cc1 | 4.31 | 7.09 | 23.7 |
| COc1ccc(OCc2nn3c(-c4cccc(OC)c4)nnc3s2)cc1 |  | > 100 |  |
| O=C(O)/C=C/C(=O)Nc1ccc(-n2nccc2C(F)(F)F)cc1 |  | > 100 |  |
| CCOc1ccc(-c2cc(CCCC(=O)Nc3cccc(OC)c3)no2)cc1 | 10.7 | > 100 | > 40 |
| O=C(CC(=O)c1ccccc1O)c1cccc(F)c1 | 18.4 | 29.2 | > 40 |
| Cc1nc2ccccn2c1C(=O)NCc1ccc2c(c1)OCO2 | 1.62 | 7.83 |  |
| O=C(c1ccc([N+](=O)[O-])s1)N1CCN(c2cccc(Cl)c2)CC1 | 9.2 | 12.8 | 31.6 |
| Cc1ccc(Sc2cc(C)nc(-c3ccccn3)n2)cc1 | 2.26 | 15.7 | 10.8 |
| Nc1ccc(C(=O)c2cccs2)cc1 | 22.1 | > 100 |  |
| Nc1[nH]ncc1-c1ccc(Cl)cc1 | 21.6 | > 100 |  |
| COc1ccc(CNCc2cc3c(C(C)(C)C)nn(-c4ccccc4)c3[nH]c2=O)cc1 | 11.4 | 13 | > 40 |
| COC(=O)c1c(NC(=O)CC2SC(N)=NC2=O)sc2c1CCC(C(C)(C)C)C2 (stereo not drawn) | 16.4 | 24 | 35 |
| O=C(Nc1ncc(Cc2ccccc2)s1)C1=NCCN1 | 11.6 | > 100 | > 40 |
| COc1ccc(CNCCC(c2ccc(F)cc2)c2ccc(OC(C)C)cc2)cc1OC (stereo not drawn) | 15.2 | 20.8 | 15.4 |
| c1ccc(C2[C@H]3CN(CC4CCCCC4)[C@H](c4ccccc4)C34CC2(c2cccnc2)C4)cc1 (stereo partly drawn) | 15 | 23.4 |  |
| O=C(C=C=Nc1ccccc1)C(=O)N=C=Cc1ccccc1 | 16.4 | 25 | 22.8 |
| CCn1ccnc1CN(C)Cc1cn(-c2ccc(C)cc2)nc1-c1ccc(F)cc1 | 5.81 | 6.72 | > 40 |
| CCOc1ccc(N2CCc3c(C)nc(SC)nc32)cc1 | < 0.195 | 40.3 | 27.1 |
| Nc1nc(-c2ccc(F)cc2)cs1 | 23.8 | > 100 |  |
| Cc1[nH]n2c(=O)c3c(nc2c1-c1ccccc1)CCCC3 | 2.89 | 4.05 | 22.8 |

| SMILES | IC50 [µM] | IC90 [µM] | CC50 [µM] |
| --- | --- | --- | --- |
| CCOC(=O)c1ccc(NC(=O)CCOc2ccc(OC)cc2)cc1 | 9.49 | > 100 |  |
| CC(C)=CCN1CCN(CCC2=C(C)CCCC2(C)C)CC1CCO (stereo not drawn) | 5.88 | 6.66 |  |
| Clc1cccc2c1Sc1ccccc1CC2N1CCNCC1 (stereo not drawn) | 3.12 | 6.58 | 11.2 |
| O=C(Nc1nnc(-c2ccccn2)o1)c1cccc(Br)c1 | 12.4 | > 100 | > 40 |
| Cc1ccc(/C=C/C(=O)C2C(=O)c3ccccc3C2=O)cc1 | 3.39 | 5.29 | > 40 |
| c1ccc(-c2nc(NCc3ccco3)c3ccccc3n2)nc1 | 1.92 | 3 | 9.33 |
| O=C(Nc1cc(Cl)ccc1O)c1cc2n(n1)C(C(F)(F)F)CC(c1ccc3c(c1)OCO3)N2 (stereo not drawn) |  |  | > 40 |
| Cc1nc(N/C(N)=N/S(=O)(=O)c2ccc([N+](=O)[O-])cc2)nc2ccccc12 | 9.12 | > 100 | > 40 |
| CCc1nnc(NC(=O)c2ccc3ccccc3n2)s1 | 12.1 | > 100 | > 40 |
| COc1cccc(C(=O)Nc2ccc(-c3nc4ccccc4o3)c(O)c2)c1 | 8.7 | > 100 | > 40 |
| O=C(Nc1nnc(C2=COCCO2)o1)c1ccc(Cc2ccccc2)cc1 | 4.49 | 10.6 | > 40 |
| O=C(/C=C/c1cccc(Cl)c1)c1nc2ccccc2[nH]1 | 2.94 | 3.34 | 15.3 |
| CCOc1ccc(N/C=C\C(=O)c2ccc3c(c2)OCO3)cc1 | 4.53 | > 100 |  |
| CC(C)OC(=O)CSc1ncnc2c1cnn2Cc1ccccc1 | 8.22 | 19 |  |
| COc1cccc(C(=O)Oc2ccccc2/C=C\C(=O)c2cc3ccccc3o2)c1 | 3.43 | 5.83 | 11.4 |
| CCOc1ccc(NCC(=O)Nc2ccc(C)cc2C)cc1 | 62.4 | > 100 |  |
| Cc1nc([N+](=O)[O-])c(Br)n1Cc1ccc(Cl)c(Cl)c1 | 4.08 | 7.03 | 12.5 |
| Cc1ccc([N+](=O)[O-])cc1NC(=O)CN(C(=O)c1ccccc1Cl)C1CCCCC1 | 3.22 | 5.22 |  |
| COc1ccccc1C(=O)OCC(=O)Nc1ccc(Cl)cn1 | 22.6 | > 100 | > 40 |
| COc1ccc(-c2nc(CN3CCCCC3c3nccn3C)c(C)o2)c(C)c1C (stereo not drawn) | 18.1 | 40.9 | 22 |

| SMILES | IC50 [µM] | IC90 [µM] | CC50 [µM] |
| --- | --- | --- | --- |
| CCOC(=O)CSc1ncnc2c1cnn2-c1ccc(C)cc1 | 10.1 | 22.5 |  |
| Nc1c2c(nc3ccn(Cc4ccccc4)c(=O)c13)CCC2 | 7.11 | 15.3 | > 40 |
| CCOC(=O)c1cc(-c2csc(COc3ccc(Cl)cc3)n2)on1 | < 0.195 | 2.41 |  |
| O=c1[nH]c2ccccc2n1CCCN1CCN(C(c2ccccc2)c2ccccc2)CC1 | 17.1 | 25.3 | > 40 |
| Cn1c(=O)[nH]c(=O)c2c1nc(N1CCCCC1)n2CCCSc1nc2ccccc2s1 |  |  | > 40 |
| CCOC(=O)N1CCN(c2nc(N(c3ccccc3)c3ccccc3)nc(-n3ccnc3)n2)CC1 | 8.91 | 11.3 | > 40 |
| O=C(Nc1nnc(-c2ccccc2)o1)c1cc(Cl)sc1Cl | 2.4 | > 100 | > 40 |
| CCOC(=O)c1ccc(NC(=O)CCc2c(C)nc3ncnn3c2C)cc1 |  | > 100 |  |
| N#CC1=C(S)N(c2ccccc2)C(c2ccc(-c3ccc(Cl)c(Cl)c3)o2)NC1=O (stereo not drawn) | 41 | > 100 |  |
| Clc1ccc(-c2nnc3sc(Cc4cccs4)nn23)cc1 | 19.6 | > 100 |  |
| CC(=O)c1sc(NC(=O)c2cc(-c3ccccc3)nn2-c2ccccc2)nc1C | 27.7 | > 100 | > 40 |
| O=C(CNC1CCCC1)Nc1ccc(N2CCCCCC2)cc1 | 8.04 | 10.2 | 37.7 |
| COc1ccc(/C=C2/Sc3ccc(C(=O)N4CCc5ccccc5C4)cc3NC2=O)cc1 | 20 | > 100 | > 40 |
| C(=C\c1nccc2c1[nH]c1ccccc12)/c1ccccc1 | 8.41 | 11.3 | 29.4 |
| COc1cc(/C=C/C(=O)OCC(=O)NC(=O)NC23CC4CC(CC(C4)C2)C3)ccc1OCC#N | 8.37 | > 100 | > 40 |
| COc1cc(-c2cc(C(=O)Nc3nc4ccccc4s3)c3ccccc3n2)cc(OC)c1OC |  | > 100 | > 40 |
| Cc1[nH]n2c(=O)cc(C(C)(C)C)nc2c1-c1ccccc1 | 0.407 | 2.91 | 13.1 |
| CCN1CCN(c2cc(C(C)(C)C)nc3c(-c4ccccc4)c(C)nn23)CC1 | 3.6 | 5.63 | 30.6 |
